Patent US9765070B2, “Substituted oxopyridine derivatives” (Bayer Pharma Aktiengesellschaft, priority 2013, dated 2017)
pIC50: −log10 of the molar value.

Tests used:
[1] = target: human plasma kallikrein (Homo sapiens (Human), UniProt P03952); assay: Determination of the plasma kallikrein activity (fluorogenic substrate H-Pro-Phe-Arg-AMC); assay type: biochemical; settings: plasma kallikrein from Kordia 0.6 nM, 15 min preincubation, 30 min at 22° C., fluorescence
Procedure: a.5) Determination of the Plasma Kallikrein Activity
(§1) To determine the plasma kallikrein inhibition of the substances according to the invention, a biochemical test system is used which utilizes the reaction of a peptidic plasma kallikrein substrate to determine the enzymatic activity of human plasma kallikrein. Here, plasma kallikrein cleaves from the peptic plasma kallikrein substrate the C-terminal aminomethylcoumarin (AMC), the fluorescence of which is measured. The determinations are carried out in microtitre plates.
In each case 1 μl of the diluted substance solutions is placed into the wells of white microtitre plates from Greiner (384 wells). 20 μl of assay buffer (50 mM Tris/HCl pH 7.4; 100 mM sodium chloride solution; 5 mM of calcium chloride solution; 0.1% of bovine serum albumin) and 20 μl of plasma kallikrein from Kordia (0.6 nM in assay buffer) are then added successively. After 15 min of incubation, the enzyme reaction is started by addition of 20 μl of the substrate H-Pro-Phe-Arg-AMC dissolved in assay buffer (10 μM in assay buffer) from Bachem, the mixture is incubated at room temperature (22° C.) for 30 min and fluorescence is then measured (excitation: 360 nm, emission: 460 nm). The measured emissions of the test batches with test substance are compared to those of control batches without test substance (only dimethyl sulphoxide instead of test substance in dimethyl sulphoxide), and IC50 values are calculated from the concentration/activity relationships.

[2] = target: human factor XIa (Homo sapiens (Human), UniProt P03951); assay: Measurement of FXIa inhibition (fluorogenic peptide substrate Boc-Glu(OBzl)-Ala-Arg-AMC); assay type: biochemical; settings: factor XIa from Kordia 0.45 nM, 15 min preincubation, 30 min at 22° C., fluorescence
Procedure: a.1) Measurement of FXIa Inhibition
as §1, with “The factor XIa” for “To determine the plasma kallikrein”, “invention is determined using” for “invention,”, “system” for “system is used”, “factor XIa” for “plasma kallikrein”, “factor XIa.” for “plasma kallikrein.”
In each case 1 μl of the diluted substance solutions is placed into the wells of white microtitre plates from Greiner (384 wells). 20 μl of assay buffer (50 mM of Tris/HCl pH 7.4; 100 mM of sodium chloride; 5 mM of calcium chloride; 0.1% of bovine serum albumin) and 20 μl of factor XIa from Kordia (0.45 nM in assay buffer) are then added successively. After 15 min of incubation, the enzyme reaction is started by addition of 20 μl of the factor XIa substrate Boc-Glu(OBzl)-Ala-Arg-AMC dissolved in assay buffer (10 μM in assay buffer) from Bachem, the mixture is incubated at room temperature (22° C.) for 30 min and fluorescence is then measured (excitation: 360 nm, emission: 460 nm). The measured emissions of the test batches with test substance are compared to those of control batches without test substance (only dimethyl sulphoxide instead of test substance in dimethyl sulphoxide), and IC50 values are calculated from the concentration/activity relationships.

human plasma kallikrein, sequence (P03952 391-638): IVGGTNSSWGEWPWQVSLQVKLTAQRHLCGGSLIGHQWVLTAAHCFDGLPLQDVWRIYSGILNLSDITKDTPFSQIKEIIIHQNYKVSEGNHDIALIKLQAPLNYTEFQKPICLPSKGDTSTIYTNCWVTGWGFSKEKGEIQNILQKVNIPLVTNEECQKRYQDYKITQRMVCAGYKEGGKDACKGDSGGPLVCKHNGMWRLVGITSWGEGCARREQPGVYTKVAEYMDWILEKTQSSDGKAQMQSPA
human plasma kallikrein, sequence (P03952 20-390 partner): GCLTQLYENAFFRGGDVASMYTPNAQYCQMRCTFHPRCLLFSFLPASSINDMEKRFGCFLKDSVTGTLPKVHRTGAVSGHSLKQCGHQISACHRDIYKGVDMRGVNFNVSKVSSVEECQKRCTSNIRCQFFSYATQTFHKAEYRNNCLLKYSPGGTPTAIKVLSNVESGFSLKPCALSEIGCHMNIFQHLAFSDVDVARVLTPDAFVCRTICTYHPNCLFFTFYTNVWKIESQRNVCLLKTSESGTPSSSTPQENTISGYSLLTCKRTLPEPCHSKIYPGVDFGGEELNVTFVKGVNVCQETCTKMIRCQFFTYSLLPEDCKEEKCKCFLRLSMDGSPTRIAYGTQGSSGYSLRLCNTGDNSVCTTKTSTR
human factor XIa, sequence (P03951 388-625): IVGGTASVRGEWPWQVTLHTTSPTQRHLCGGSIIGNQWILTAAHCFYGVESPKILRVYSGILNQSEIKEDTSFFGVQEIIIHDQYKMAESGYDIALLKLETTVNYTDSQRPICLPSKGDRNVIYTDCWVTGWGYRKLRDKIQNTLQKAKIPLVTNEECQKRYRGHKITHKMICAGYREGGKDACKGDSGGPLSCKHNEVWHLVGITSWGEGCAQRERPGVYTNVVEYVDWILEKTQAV
human factor XIa, sequence (P03951 19-387 partner): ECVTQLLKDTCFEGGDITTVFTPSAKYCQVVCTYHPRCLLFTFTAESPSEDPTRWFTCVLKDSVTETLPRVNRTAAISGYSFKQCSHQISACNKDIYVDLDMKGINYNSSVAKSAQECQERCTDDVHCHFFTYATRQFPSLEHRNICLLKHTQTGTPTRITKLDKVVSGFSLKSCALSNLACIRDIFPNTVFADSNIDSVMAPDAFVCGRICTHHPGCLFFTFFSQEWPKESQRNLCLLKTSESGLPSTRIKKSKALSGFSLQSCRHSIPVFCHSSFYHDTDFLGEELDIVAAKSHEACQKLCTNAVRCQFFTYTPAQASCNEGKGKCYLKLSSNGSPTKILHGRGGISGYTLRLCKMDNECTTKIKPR

Row | pIC50 [1] | pIC50 [2] | Structure (SMILES)
1 | 7.77 |  | CCC(C(=O)Nc1ccn2nccc2c1)n1cc(OC)c(-c2cc(Cl)ccc2C#N)cc1=O (racemic) [Example 34, 2-[4-(5-Chloro-2-cyanophenyl)-5-methoxy-2-oxopyridin-1(2H)-yl]-N-(pyrazolo[1,5-a]pyridin-5-yl)butanamide (racemate)]
2 | 8.37 |  | COCCC(C(=O)Nc1ccn2nccc2c1)n1cc(OC)c(-c2cc(Cl)ccc2C#N)cc1=O (racemic) [Example 35, 2-[4-(5-Chloro-2-cyanophenyl)-5-methoxy-2-oxopyridin-1(2H)-yl]-4-methoxy-N-(pyrazolo[1,5-a]pyridin-5-yl)butanamide (racemate)]
3 | 7.29 |  | CCC(C(=O)Nc1ccn2ncc(Cl)c2c1)n1cc(OC)c(-c2cc(Cl)ccc2C#N)cc1=O (racemic) [Example 40, 2-[4-(5-Chloro-2-cyanophenyl)-5-methoxy-2-oxopyridin-1(2H)-yl]-N-(3-chloropyrazolo[1,5-a]pyridin-5-yl)butanamide (racemate)]
4 | 7.96 |  | COCCC(C(=O)Nc1ccn2ncc(Cl)c2c1)n1cc(OC)c(-c2cc(Cl)ccc2C#N)cc1=O (racemic) [Example 41, 2-[4-(5-Chloro-2-cyanophenyl)-5-methoxy-2-oxopyridin-1(2H)-yl]-N-(3-chloropyrazolo[1,5-a]pyridin-5-yl)-4-methoxybutanamide (racemate)]
5 | 8.49 |  | COCCC(C(=O)Nc1ccn2nccc2c1)n1cc(OC)c(-c2cc(Cl)ccc2C#N)cc1=O (single isomer, unassigned; enantiomer 1) [Example 36, 2-[4-(5-Chloro-2-cyanophenyl)-5-methoxy-2-oxopyridin-1(2H)-yl]-4-methoxy-N-(pyrazolo[1,5-a]pyridin-5-yl)butanamide (enantiomer 1)]

Further lines, the compound ahead of its results:

Row | Structure (SMILES) | pIC50 [1] | pIC50 [2]
6 | COc1cn(C(Cc2cnco2)C(=O)Nc2ccc3nccn3c2)c(=O)cc1-c1cc(Cl)ccc1C#N (racemic) [Example 29, 2-[4-(5-Chloro-2-cyanophenyl)-5-methoxy-2-oxopyridin-1(2H)-yl]-N-(imidazo[1,2-a]pyridin-6-yl)-3-(1,3-oxazol-5-yl)propanamide (racemate)] | 7.96 | 
7 | N#Cc1ccc(Cl)cc1-c1cc(=O)n(C(Cc2cnco2)C(=O)Nc2ccc3nccn3c2)cc1Cl (racemic) [Example 30, 2-[5-Chloro-4-(5-chloro-2-cyanophenyl)-2-oxopyridin-1(2H)-yl]-N-(imidazo[1,2-a]pyridin-6-yl)-3-(1,3-oxazol-5-yl)propanamide (racemate)] | 6.92 | 7.02
8 | N#Cc1ccc(Cl)cc1-c1cc(=O)n(C(Cc2cnco2)C(=O)Nc2ccc3nccn3c2)cc1OC(F)F (racemic) [Example 31, 2-[4-(5-Chloro-2-cyanophenyl)-5-(difluoromethoxy)-2-oxopyridin-1(2H)-yl]-N-(imidazo[1,2-a]pyridin-6-yl)-3-(1,3-oxazol-5-yl)propanamide (racemate)] | 6.01 | 6.30
9 | COc1cn(C(Cc2cocn2)C(=O)Nc2ccc3nccn3c2)c(=O)cc1-c1cc(Cl)ccc1C#N (racemic) [Example 32, 2-[4-(5-Chloro-2-cyanophenyl)-5-methoxy-2-oxopyridin-1(2H)-yl]-N-(imidazo[1,2-a]pyridin-6-yl)-3-(1,3-oxazol-4-yl)propanamide (racemate)] |  | 7.04
10 | N#Cc1ccc(Cl)cc1-c1cc(=O)n(C(Cc2cocn2)C(=O)Nc2ccc3nccn3c2)cc1Cl (racemic) [Example 33, 2-[5-Chloro-4-(5-chloro-2-cyanophenyl)-2-oxopyridin-1(2H)-yl]-N-(imidazo[1,2-a]pyridin-6-yl)-3-(1,3-oxazol-4-yl)propanamide (racemate)] | 6.60 | 6.51
11 | COc1cn(CC(=O)Nc2ccc3nc(C(=O)O)cn3c2)c(=O)cc1-c1cc(Cl)ccc1C#N [Example 6, 6-({[4-(5-Chloro-2-cyanophenyl)-5-methoxy-2-oxopyridin-1(2H)-yl]acetyl}amino)imidazo[1,2-a]pyridine-2-carboxylic acid] | 7.21 | 
12 | O=C(Cn1cc(Cl)c(-c2cc(Cl)ccc2OC(F)F)cc1=O)Nc1ccc2nc(C(=O)O)cn2c1 [Example 8, 6-[({5-Chloro-4-[5-chloro-2-(difluoromethoxy)phenyl]-2-oxopyridin-1(2H)-yl}acetyl)amino]imidazo[1,2-a]pyridine-2-carboxylic acid] |  | 6.42
